In PubChem BioAssay (NCI):
“And” between values parts separate entries of the source, which are not always exact repeats. Identical values can stand only once.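 In this assay, cells in 96-well plates receive the compound at five concentrations for 48 hours. Endpoints are linearly interpolated between the surrounding concentrations. GI50: concentration for 50% inhibition of growth. TGI denotes the concentration required for complete inhibition of growth.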

Each compound was assayed on EKVX NSCLC (assay: inhibition of tumour cell growth, NCI panel, 48 h).

Row | SMILES | GI50 | TGI
1 | O=C1/C(=C\c2cccn2Cc2ccccc2)c2ccccc2N1c1c(Cl)cccc1Cl | 1.42 µM | > 28.1 µM
2 | CCOC(=O)c1[nH]c(COC(C)=O)c(CCCOC(C)=O)c1CCCOC(C)=O | – | > 100 µM
3 | Cc1sc2nc(NCCc3c[nH]c4ccc(Cl)cc34)[nH]c(=O)c2c1C | 2.76 µM | –
4 | COc1ccc(/C=c2/sc3n(c2=O)C(c2ccc(OC)c(OC)c2)C2=C(N=3)c3cc(F)ccc3OC2)cc1 (stereo unspecified) | 39.7 µM | > 100 µM
5 | O=C(Nc1ccc([N+](=O)[O-])cc1)C1C(=O)C(=O)N(c2ccc([N+](=O)[O-])cc2)C1=O (stereo unspecified) | – | > 100 µM
6 | O=C(O)c1cc(O)c2c(c1)C(C1c3cc(C(=O)O)cc(O)c3C(=O)c3c(OC4OC(CO)C(O)C(O)C4O)cccc31)c1cccc(OC3OC(CO)C(O)C(O)C3O)c1C2=O (stereo unspecified) | > 100 µM | > 100 µM
7 | O=C(CN(C1CCCCC1)C1CCCCC1)Nc1ccc(S(=O)(=O)c2ccc(NC(=O)CN(C3CCCCC3)C3CCCCC3)cc2)cc1 | 1.41 µM | 2.88 µM
8 | O=C(/C=C/c1c(O)ccc2ccccc12)c1ccc2ccccc2c1 | – | > 100 µM
9 | O=c1[nH]c2cc(Cl)ccc2n1C1CCN(CCCC(c2ccc(F)cc2)c2ccc(F)cc2)CC1 | 1.45 µM | 3.38 µM
10 | CCOC(=O)C1N(S(=O)(=O)c2ccc(C)cc2)CCC12C(c1ccc(OC)cc1)NC1CCCCC12 (stereo unspecified) | – | > 100 µM
11 | Nc1nc(Br)nc2c1ncn2C1CC(O)C(CO)O1 (stereo unspecified) | > 100 µM | > 100 µM
12 | Nc1nc(Nc2ccccc2)c2ncn(Cc3cc4c(cc3Br)OCO4)c2n1 | < 0.0276 µM | > 100 µM
13 | CCOC(=O)N1CCN(C(=O)c2ccc(C(F)(F)F)nc2Nc2cc(Cl)ccc2C)CC1 | 23.2 µM | > 100 µM
14 | Cc1ccc(Nc2nc(N)c(C(=O)c3ccc(C#N)cc3)s2)cc1 | 0.573 µM | > 100 µM
15 | O=C1c2ccn(CCCCNC(CO)(CO)CO)c2C(=O)c2c1c(O)c1ccccc1c2O | 24.8 µM | 74 µM
16 | COC(=O)/C=C/C1C(C(=O)OC)C2(C(=O)OC)CCC1(C(=O)OC)N2 (stereo unspecified) | – | > 100 µM
17 | CC(C)(C)N1CC2(CCCCC2)C1=O | – | > 100 µM
18 | COc1ccc(-c2cc(-c3cccn3C)c(C#N)c(N)n2)cc1OC | > 100 µM | > 100 µM
19 | COc1ccc(CNc2c3ccccc3nc3ccccc23)cc1OC | 2.7 µM | 12.4 µM
20 | O=C(Nc1ccc(Cl)cc1F)c1cc(Br)ccc1O | 1.46 µM | > 26.1 µM
21 | COc1ccc(-n2cc(-c3ccc(Cl)c(Cl)c3)nc2SCc2cccc(C#N)c2)cc1 | 41.9 µM | > 100 µM
22 | N#CC(/C(=N/NC(=O)C(=O)NN)C(=O)NC12CC3CC(CC(C3)C1)C2)c1ccccc1 (stereo unspecified) | – | > 100 µM
23 | Nc1c(C(=O)N/N=C/c2ccc(-c3ccc(Cl)cc3)o2)cnn1-c1ccnc2c(C(F)(F)F)cccc12 | > 100 µM | > 100 µM
24 | Fc1ccc(Nc2cc(-n3nnc4ccccc43)nc3ccccc23)cc1 | 31.8 µM | > 82.6 µM
25 | NC(=O)C(=CNc1nc(-c2ccc(Cl)c(Cl)c2)cs1)C(N)=O | 43.8 µM | > 100 µM
26 | NC(N)=N/N=C/c1cc(Cl)cc(Cl)c1O | – | > 100 µM
27 | O=C(Nc1cccc(Cl)c1)c1cc2ccccc2cc1O | 2.76 µM and 2.05 µM | > 100 µM
28 | CCCCCCCCCc1cc(=O)c2c(O)cccc2o1 | – | > 100 µM

The compounds below were run on NCI-H226 lung (assay: inhibition of tumour cell growth, NCI panel, 48 h).

Row | SMILES | GI50 | TGI
29 | O=C1/C(=C\c2cccn2Cc2ccccc2)c2ccccc2N1c1c(Cl)cccc1Cl | 14.9 µM | > 100 µM
30 | CCOC(=O)c1[nH]c(COC(C)=O)c(CCCOC(C)=O)c1CCCOC(C)=O | – | > 100 µM
31 | Cc1sc2nc(NCCc3c[nH]c4ccc(Cl)cc34)[nH]c(=O)c2c1C | 3.18 µM | 17.4 µM
32 | COc1ccc(/C=c2/sc3n(c2=O)C(c2ccc(OC)c(OC)c2)C2=C(N=3)c3cc(F)ccc3OC2)cc1 (stereo unspecified) | 9.17 µM | > 60.2 µM
33 | O=C(Nc1ccc([N+](=O)[O-])cc1)C1C(=O)C(=O)N(c2ccc([N+](=O)[O-])cc2)C1=O (stereo unspecified) | – | > 100 µM
34 | O=C(O)c1cc(O)c2c(c1)C(C1c3cc(C(=O)O)cc(O)c3C(=O)c3c(OC4OC(CO)C(O)C(O)C4O)cccc31)c1cccc(OC3OC(CO)C(O)C(O)C3O)c1C2=O (stereo unspecified) | > 100 µM | > 100 µM
35 | O=C(CN(C1CCCCC1)C1CCCCC1)Nc1ccc(S(=O)(=O)c2ccc(NC(=O)CN(C3CCCCC3)C3CCCCC3)cc2)cc1 | 2.06 µM | 9.43 µM
36 | O=C(/C=C/c1c(O)ccc2ccccc12)c1ccc2ccccc2c1 | – | > 100 µM
37 | O=c1[nH]c2cc(Cl)ccc2n1C1CCN(CCCC(c2ccc(F)cc2)c2ccc(F)cc2)CC1 | 1.87 µM | 3.53 µM
38 | CCOC(=O)C1N(S(=O)(=O)c2ccc(C)cc2)CCC12C(c1ccc(OC)cc1)NC1CCCCC12 (stereo unspecified) | – | > 100 µM
39 | Nc1nc(Br)nc2c1ncn2C1CC(O)C(CO)O1 (stereo unspecified) | 25.2 µM | > 100 µM
40 | Nc1nc(Nc2ccccc2)c2ncn(Cc3cc4c(cc3Br)OCO4)c2n1 | 0.777 µM | 31.5 µM
41 | CCOC(=O)N1CCN(C(=O)c2ccc(C(F)(F)F)nc2Nc2cc(Cl)ccc2C)CC1 | 20.5 µM | 68.6 µM
42 | Cc1ccc(Nc2nc(N)c(C(=O)c3ccc(C#N)cc3)s2)cc1 | 1.6 µM | > 93.5 µM
43 | O=C1c2ccn(CCCCNC(CO)(CO)CO)c2C(=O)c2c1c(O)c1ccccc1c2O | 2.81 µM | 9.35 µM
44 | COC(=O)/C=C/C1C(C(=O)OC)C2(C(=O)OC)CCC1(C(=O)OC)N2 (stereo unspecified) | – | > 100 µM
45 | CC(C)(C)N1CC2(CCCCC2)C1=O | – | > 100 µM
46 | COc1ccc(-c2cc(-c3cccn3C)c(C#N)c(N)n2)cc1OC | > 100 µM | > 100 µM
47 | COc1ccc(CNc2c3ccccc3nc3ccccc23)cc1OC | 2.25 µM | 7.04 µM
48 | O=C(Nc1ccc(Cl)cc1F)c1cc(Br)ccc1O | 1.16 µM | 4.11 µM
49 | COc1ccc(-n2cc(-c3ccc(Cl)c(Cl)c3)nc2SCc2cccc(C#N)c2)cc1 | 77 µM | > 100 µM
50 | N#CC(/C(=N/NC(=O)C(=O)NN)C(=O)NC12CC3CC(CC(C3)C1)C2)c1ccccc1 (stereo unspecified) | – | > 100 µM
51 | Nc1c(C(=O)N/N=C/c2ccc(-c3ccc(Cl)cc3)o2)cnn1-c1ccnc2c(C(F)(F)F)cccc12 | > 100 µM | > 100 µM
52 | Fc1ccc(Nc2cc(-n3nnc4ccccc43)nc3ccccc23)cc1 | 19 µM | > 69 µM
53 | NC(=O)C(=CNc1nc(-c2ccc(Cl)c(Cl)c2)cs1)C(N)=O | > 100 µM | > 100 µM
54 | NC(N)=N/N=C/c1cc(Cl)cc(Cl)c1O | – | > 100 µM
55 | O=C(Nc1cccc(Cl)c1)c1cc2ccccc2cc1O | 4.65 µM and 2.68 µM | > 100 µM
56 | CCCCCCCCCc1cc(=O)c2c(O)cccc2o1 | – | > 100 µM

What follows are compounds tested on IGROV1 ovarian (assay: inhibition of tumour cell growth, NCI panel, 48 h).

Row | SMILES | GI50 | TGI
57 | O=C1/C(=C\c2cccn2Cc2ccccc2)c2ccccc2N1c1c(Cl)cccc1Cl | 0.551 µM | > 100 µM
58 | CCOC(=O)c1[nH]c(COC(C)=O)c(CCCOC(C)=O)c1CCCOC(C)=O | – | > 100 µM
59 | Cc1sc2nc(NCCc3c[nH]c4ccc(Cl)cc34)[nH]c(=O)c2c1C | 3.12 µM | 13.1 µM
60 | COc1ccc(/C=c2/sc3n(c2=O)C(c2ccc(OC)c(OC)c2)C2=C(N=3)c3cc(F)ccc3OC2)cc1 (stereo unspecified) | 9.71 µM | > 26.5 µM
61 | O=C(Nc1ccc([N+](=O)[O-])cc1)C1C(=O)C(=O)N(c2ccc([N+](=O)[O-])cc2)C1=O (stereo unspecified) | – | > 100 µM
62 | O=C(O)c1cc(O)c2c(c1)C(C1c3cc(C(=O)O)cc(O)c3C(=O)c3c(OC4OC(CO)C(O)C(O)C4O)cccc31)c1cccc(OC3OC(CO)C(O)C(O)C3O)c1C2=O (stereo unspecified) | > 100 µM | > 100 µM
63 | O=C(CN(C1CCCCC1)C1CCCCC1)Nc1ccc(S(=O)(=O)c2ccc(NC(=O)CN(C3CCCCC3)C3CCCCC3)cc2)cc1 | 0.421 µM | 1.6 µM
64 | O=C(/C=C/c1c(O)ccc2ccccc12)c1ccc2ccccc2c1 | – | > 100 µM
65 | O=c1[nH]c2cc(Cl)ccc2n1C1CCN(CCCC(c2ccc(F)cc2)c2ccc(F)cc2)CC1 | 1.98 µM | 3.87 µM
66 | CCOC(=O)C1N(S(=O)(=O)c2ccc(C)cc2)CCC12C(c1ccc(OC)cc1)NC1CCCCC12 (stereo unspecified) | – | > 100 µM
67 | Nc1nc(Br)nc2c1ncn2C1CC(O)C(CO)O1 (stereo unspecified) | – | > 69.4 µM
68 | Nc1nc(Nc2ccccc2)c2ncn(Cc3cc4c(cc3Br)OCO4)c2n1 | 0.105 µM | 60.4 µM
69 | CCOC(=O)N1CCN(C(=O)c2ccc(C(F)(F)F)nc2Nc2cc(Cl)ccc2C)CC1 | 1.38 µM | 59.7 µM
70 | Cc1ccc(Nc2nc(N)c(C(=O)c3ccc(C#N)cc3)s2)cc1 | 1.2 µM | > 100 µM
